Results taken from ChEMBL document CHEMBL3244137, “Synthesis and antimicrobial activity of azasteroid-type compounds and related systems. Effect of hydrophilic and lipophilic groups on activity” (1977).

Experiments:
Format in all cases: functional
Bacillus subtilis [1] = assay: Growth inhibition of Bacillus subtilis at 5 ug/ml; conditions: for inhibition at 5 µg/mL: Bacillus subtilis
Bacillus subtilis [2] = assay: Growth inhibition of Bacillus subtilis at 91 ug/ml
Pseudomonas fluorescens [3] = assay: Growth inhibition of Pseudomonas fluorescens at 91 ug/ml
KB [4] = assay: Plating efficiency of human KB cells at 150 ug/ml
KB [5] = assay: Growth inhibition of human KB cells at 150 ug/ml; conditions: read-out: GI
KB [6] = assay: Plating efficiency of human KB cells at 25 ug/ml
KB [7] = assay: Growth inhibition of human KB cells at 25 ug/ml; conditions: read-out: GI
KB [8] = assay: Plating efficiency of human KB cells at 12.5 ug/ml
KB [9] = assay: Growth inhibition of human KB cells at 12.5 ug/ml; conditions: read-out: GI
Bacillus subtilis [10] = assay: Growth inhibition of Bacillus subtilis at 45 ug/ml
Pseudomonas fluorescens [11] = assay: Growth inhibition of Pseudomonas fluorescens at 45 ug/ml
Bacillus subtilis [12] = assay: Growth inhibition of Bacillus subtilis at 50 ug/ml
Pseudomonas fluorescens [13] = assay: Growth inhibition of Pseudomonas fluorescens at 50 ug/ml
KB [14] = assay: Plating efficiency of human KB cells at 50 ug/ml
KB [15] = assay: Growth inhibition of human KB cells at 50 ug/ml; conditions: read-out: GI
Bacillus subtilis [16] = assay: Growth inhibition of Bacillus subtilis at 90 ug/ml
Pseudomonas fluorescens [17] = assay: Growth inhibition of Pseudomonas fluorescens at 5 ug/ml
Pseudomonas fluorescens [18] = assay: Growth inhibition of Pseudomonas fluorescens at 90 ug/ml
Bacillus subtilis [19] = assay: Growth inhibition of Bacillus subtilis at 10 ug/ml
Bacillus subtilis [20] = assay: Growth inhibition of Bacillus subtilis at 20 ug/ml

COc1ccc2c(c1)CCc1sc(N)nc1-2
inhibition at 5 µg/mL (Bacillus subtilis [1]): 40%

COc1ccc2c(c1)CCc1cnoc1-2
inhibition at 91 µg/mL (Bacillus subtilis [2]): 100%
inhibition at 91 µg/mL (Pseudomonas fluorescens [3]): 0%
Activity (KB [4]): 0%
inhibition of growth at 150 µg/mL (KB [5]): 100%
Activity (KB [6]): 67%
inhibition of growth at 25 µg/mL (KB [7]): 33%
Activity (KB [8]): 100%
inhibition of growth at 12.5 µg/mL (KB [9]): 0%

COc1ccc2c(c1)CCc1c[nH]nc1-2
inhibition at 91 µg/mL (Bacillus subtilis [2]): 0%

OCCOc1ccc2c(c1)CCc1cn[nH]c1-2
inhibition at 91 µg/mL (Bacillus subtilis [2]): 0%

CN(C)CCOc1ccc2c3c(ccc2c1)C(=O)CCC3
inhibition at 91 µg/mL (Bacillus subtilis [2]): 100%

CN(C)CCOc1ccc2c(c1)CCc1cn[nH]c1-2
inhibition at 91 µg/mL (Bacillus subtilis [2]): 0%

CCCCCCOc1ccc2c(c1)CCc1cn[nH]c1-2
inhibition at 45 µg/mL (Bacillus subtilis [10]): 100%
inhibition at 45 µg/mL (Pseudomonas fluorescens [11]): 0%

CCCCCCCCCCCCCCCCOc1ccc2c(c1)CCc1cn[nH]c1-2
inhibition at 91 µg/mL (Bacillus subtilis [2]): 0%

CCCCCCOc1ccc2c(c1)CCc1cnn([C@@H]3O[C@H](COC(C)=O)[C@@H](OC(C)=O)[C@H](OC(C)=O)[C@H]3OC(C)=O)c1-2
inhibition at 91 µg/mL (Bacillus subtilis [2]): 100%
inhibition at 50 µg/mL (Bacillus subtilis [12]): 100%
inhibition at 91 µg/mL (Pseudomonas fluorescens [3]): 0%
inhibition at 50 µg/mL (Pseudomonas fluorescens [13]): 0%

COc1ccc2c(c1)CCc1cnn([C@@H]3O[C@H](COC(C)=O)[C@@H](OC(C)=O)[C@H](OC(C)=O)[C@H]3OC(C)=O)c1-2
inhibition at 91 µg/mL (Bacillus subtilis [2]): 100%
inhibition at 5 µg/mL (Bacillus subtilis [1]): 100%
inhibition at 91 µg/mL (Pseudomonas fluorescens [3]): 100%
Activity (KB [14]): 0%
inhibition of growth at 50 µg/mL (KB [15]): 100%

CCCCCCOc1ccc2c(c1)CCc1cnn(CCN(CCCl)CCCl)c1-2
inhibition at 5 µg/mL (Bacillus subtilis [1]): 100%

COc1ccc2c(c1)CCc1cnn(CCSCCCl)c1-2
inhibition at 45 µg/mL (Bacillus subtilis [10]): 100%

CCCCCCOc1ccc2c(c1)CCc1cnoc1-2
inhibition at 91 µg/mL (Bacillus subtilis [2]): 100%
inhibition at 45 µg/mL (Bacillus subtilis [10]): 0%
inhibition at 45 µg/mL (Pseudomonas fluorescens [11]): 0%

COc1ccc2c(c1)CC[C@]1(C)C(=O)NN=C21
inhibition at 91 µg/mL (Bacillus subtilis [2]): 0%

CCCCCCOc1ccc2c(c1)CC[C@]1(C)C(=O)NN=C21
inhibition at 91 µg/mL (Bacillus subtilis [2]): 0%
inhibition at 91 µg/mL (Pseudomonas fluorescens [3]): 0%

CCCCCCOc1ccc2c(c1)CCc1sc(N)nc1-2
inhibition (INH) (Bacillus subtilis [1]): 100%
Activity (KB [6]): 0%
inhibition of growth at 25 µg/mL (KB [7]): 100%

COc1ccc2c(c1)CCc1sc(N)nc1-2.Cl
inhibition (INH) (Bacillus subtilis [1]): 47%
inhibition at 90 µg/mL (Bacillus subtilis [16]): 100%
inhibition at 5 µg/mL (Pseudomonas fluorescens [17]): 0%
inhibition at 90 µg/mL (Pseudomonas fluorescens [18]): 25%

CCCCCCOc1ccc2c(c1)CCc1sc(N)nc1-2.Cl
inhibition (INH) (Bacillus subtilis [1]): 12%
inhibition at 90 µg/mL (Bacillus subtilis [16]): 60%
inhibition at 5 µg/mL (Pseudomonas fluorescens [17]): 11%
inhibition at 90 µg/mL (Pseudomonas fluorescens [18]): 25%

COc1ccc2c3c(ccc2c1)-c1[nH]ncc1CC3
inhibition at 91 µg/mL (Bacillus subtilis [2]): 7.8%
inhibition at 90 µg/mL (Pseudomonas fluorescens [18]): 48%

CN(C)CCOc1ccc2c3c(ccc2c1)-c1[nH]ncc1CC3
inhibition at 91 µg/mL (Bacillus subtilis [2]): 100%
inhibition at 91 µg/mL (Pseudomonas fluorescens [3]): 0%

CCCCCCOc1ccc2c3c(ccc2c1)-c1[nH]ncc1CC3
inhibition at 91 µg/mL (Bacillus subtilis [2]): 100%

c1cnc2c(c1)-c1[nH]ncc1CC2
inhibition at 10 µg/mL (Bacillus subtilis [19]): 100%
inhibition at 90 µg/mL (Pseudomonas fluorescens [18]): 0%

C[n+]1cccc2c1CCc1cn[nH]c1-2
inhibition at 91 µg/mL (Bacillus subtilis [2]): 50%

COc1ccc2c(c1)CCc1cnn(CCN(CCCl)CCCl)c1-2
inhibition at 20 µg/mL (Bacillus subtilis [20]): 100%
